Measurements: patent US9079901B2, “Fused heterocyclic compounds as ion channel modulators” (Gilead Sciences, Inc., priority 2010, dated 2015)

Target: wild-type human cardiac sodium channel, hNav1.5 (late sodium current) in HEK293 cells (Homo sapiens, UniProt Q14524)
Assay: Late INa screening assay (automated whole-cell patch clamp, PatchXpress)
Assay type: cell-based
Conditions: HEK293, compound at 1 μM; late INa generated with 10 μM Tefluthrin (or 50 nM ATX II); HEK293 hNav1.5; read-out: Late INa 1 μM (percent block of late INa)
Experimental: The late sodium current (Late INa) and peak sodium current (Peak INa) assays are performed on an automated electrophysiology platform, PatchXpress 7000A (MDS Analytical Technologies, Sunnyvale, Calif.), which uses the whole cell patch clamp technique to measure currents through the cell membrane of up to 16 cells at a time. The assay uses an HEK293 (human embryonic kidney) cell line heterologously expressing the wild-type human cardiac sodium channel, hNav1.5, purchased from Millipore (Billerica, Mass.). No beta subunits were coexpressed with the Na channel alpha subunit. Cells are maintained with standard tissue culture procedures and stable channel expression is maintained with 400 μg/ml Geneticin in the culture medium. Cells isolated for use on PatchXpress are incubated for 5 minutes in Versene 1× and then for 2 minutes in 0.0125% Trypsin-EDTA (both at 37° C.) to ensure that 80-90% of the cells are single and not part of a cell cluster. Experiments are carried out at 24-27° C.
For both the Late INa and Peak INa assays, series resistance compensation is set to 50% and whole-cell compensation is performed automatically. Currents are low-pass filtered at 10 kHz and digitized at 31.25 kHz. Currents through open sodium channels are automatically recorded and stored in the DataXpress2 database (MDS Analytical Technologies, Sunnyvale, Calif.). Analysis is performed using DataXpress2 analysis software and data are compiled in Excel.
Compound stocks are routinely made in glass vials to 10 mM in dimethyl sulfoxide (DMSO). In some cases, when compounds are not soluble in DMSO, they are made in 100% ethanol. Stocks are sonicated as necessary. The extracellular solution for screening Late INa is composed of: 140 mM NaCl, 4 mM KCl, 1.8 mM CaCl2, 0.75 mM MgCl2, and 5 mM HEPES with pH adjusted to 7.4 using NaOH. The extracellular solution for screening Peak INa is composed of: 20 mM NaCl, 120 mM N-methyl-D glucamine, 4 mM KCl, 1.8 mM CaCl2, 0.75 mM MgCl2, and 5 mM HEPES with pH adjusted to 7.4 using HCl. The intracellular solution used to perfuse the inside of the cells for both the Late INa and Peak INa assays contains: 120 mM CsF, 20 mM CsCl, 5 mM EGTA, 5 mM HEPES and pH adjusted to 7.4 with CsOH. Compounds are diluted in extracellular solution to 10 μM in glass vials and then transferred to glass well plates before robotic addition to the cells. The 0Na extracellular solution used at the end of each experiment for the Late INa and Peak INa assays to measure baseline current contains: 140 mM N-methyl-D-glucamine; 4 mM KCl; 1.8 mM CaCl2; 0.75 mM MgCl2; 5 mM HEPES and pH was adjusted to 7.4 with HCl.
For the Late INa assay, sodium channels are activated every 10 seconds (0.1 Hz) by depolarizing the cell membrane to −20 mV for 250 milliseconds (ms) from a holding potential of −120 mV. In response to a −20 mV voltage step, typical Nav1.5 sodium currents activate rapidly to a peak negative current and then inactivate nearly completely within 3-4 ms.
All compounds are tested to determine their activity in blocking the late sodium current. Late INa current is generated by adding 10 μM Tefluthrin (pyrethroid) to the extracellular solution while recording Na currents. For some experiments, 50 nM ATX II (sea anemone toxin), another late INa activator, was used to generate the late component. Both activators generate late components that are large enough that block of the late component by compounds can be measured easily. For the purposes of the screening, late INa is defined as the mean current between 225 ms and 250 ms after stepping to −20 mV to activate Na channels. After establishing the whole cell recording configuration, late INa activators are added to each well 4 times over a 16-17 minute period so that the late component of the Na current reaches a stable value. Compounds are then added (typically at 10 μM), in the presence of late INa activator, with 3 additions over the course of 7 or 8 minutes. […]

wild-type human cardiac sodium channel, hNav1.5 (late sodium current) in HEK293 cells, sequence (Q14524 whole entry): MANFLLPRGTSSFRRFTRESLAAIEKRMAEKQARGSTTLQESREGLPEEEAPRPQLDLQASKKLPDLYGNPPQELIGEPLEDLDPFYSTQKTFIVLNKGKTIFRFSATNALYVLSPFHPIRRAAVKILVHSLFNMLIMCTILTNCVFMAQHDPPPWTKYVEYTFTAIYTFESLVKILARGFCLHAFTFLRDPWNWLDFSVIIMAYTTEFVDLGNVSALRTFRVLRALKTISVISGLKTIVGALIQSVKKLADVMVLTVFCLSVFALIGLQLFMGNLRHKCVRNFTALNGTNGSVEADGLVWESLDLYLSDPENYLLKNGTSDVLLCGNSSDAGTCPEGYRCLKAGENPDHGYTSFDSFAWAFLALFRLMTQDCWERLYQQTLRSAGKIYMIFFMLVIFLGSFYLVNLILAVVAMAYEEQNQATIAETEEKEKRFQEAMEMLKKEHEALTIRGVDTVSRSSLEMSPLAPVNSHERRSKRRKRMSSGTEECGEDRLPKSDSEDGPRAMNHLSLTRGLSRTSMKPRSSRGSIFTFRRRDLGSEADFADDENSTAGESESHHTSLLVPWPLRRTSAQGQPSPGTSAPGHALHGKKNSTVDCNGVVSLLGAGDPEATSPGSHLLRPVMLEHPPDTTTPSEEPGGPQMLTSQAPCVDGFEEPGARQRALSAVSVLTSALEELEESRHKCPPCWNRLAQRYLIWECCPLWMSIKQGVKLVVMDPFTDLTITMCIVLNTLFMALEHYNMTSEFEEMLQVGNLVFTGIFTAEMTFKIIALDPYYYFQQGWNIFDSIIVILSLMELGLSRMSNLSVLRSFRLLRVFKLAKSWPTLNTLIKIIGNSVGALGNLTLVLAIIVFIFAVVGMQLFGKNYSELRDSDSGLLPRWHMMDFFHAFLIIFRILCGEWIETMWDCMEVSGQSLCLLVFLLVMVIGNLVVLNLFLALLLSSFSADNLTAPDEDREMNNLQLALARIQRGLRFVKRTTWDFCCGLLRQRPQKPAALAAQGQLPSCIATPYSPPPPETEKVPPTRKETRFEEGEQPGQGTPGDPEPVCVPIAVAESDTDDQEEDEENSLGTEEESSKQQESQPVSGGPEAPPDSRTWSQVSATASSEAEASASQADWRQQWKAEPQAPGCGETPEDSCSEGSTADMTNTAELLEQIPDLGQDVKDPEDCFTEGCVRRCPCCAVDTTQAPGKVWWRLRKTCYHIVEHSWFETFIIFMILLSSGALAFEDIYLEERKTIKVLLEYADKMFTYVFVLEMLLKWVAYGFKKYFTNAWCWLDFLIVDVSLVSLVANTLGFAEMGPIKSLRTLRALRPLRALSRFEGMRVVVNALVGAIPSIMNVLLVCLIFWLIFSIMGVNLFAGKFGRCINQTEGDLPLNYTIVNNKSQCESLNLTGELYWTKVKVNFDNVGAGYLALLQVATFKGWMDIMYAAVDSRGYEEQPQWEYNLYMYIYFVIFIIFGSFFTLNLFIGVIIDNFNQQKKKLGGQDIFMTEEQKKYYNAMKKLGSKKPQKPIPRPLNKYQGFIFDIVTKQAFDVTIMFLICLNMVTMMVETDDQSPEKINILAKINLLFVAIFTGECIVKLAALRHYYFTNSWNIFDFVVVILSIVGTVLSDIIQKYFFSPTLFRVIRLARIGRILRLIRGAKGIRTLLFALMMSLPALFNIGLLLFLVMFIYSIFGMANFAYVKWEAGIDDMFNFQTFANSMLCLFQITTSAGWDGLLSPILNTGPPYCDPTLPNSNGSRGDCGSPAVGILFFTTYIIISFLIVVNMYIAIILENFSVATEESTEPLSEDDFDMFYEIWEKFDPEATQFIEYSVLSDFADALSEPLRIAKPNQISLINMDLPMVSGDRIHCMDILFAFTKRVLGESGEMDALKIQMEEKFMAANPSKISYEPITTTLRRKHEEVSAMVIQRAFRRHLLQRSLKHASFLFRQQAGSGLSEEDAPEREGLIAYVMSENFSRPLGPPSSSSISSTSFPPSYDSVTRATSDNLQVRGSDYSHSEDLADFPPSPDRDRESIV

SMILES	inhibition at 1 µM [%]
Cc1cnc(Cn2nc3ccc(-c4ccc(OC(F)(F)F)cc4)cn3c2=O)o1 [compound 25, 2-((5-methyloxazol-2-yl)methyl)-6-(4-(trifluoromethoxy)phenyl)-[1,2,4]triazolo[4,3-a]pyridin-3(2H)-one]	30.3
Cn1nc(C2CC2)cc1Cn1nc2ccc(-c3ccc(OC(F)(F)F)cc3)cn2c1=O [compound 26, 2-((3-cyclopropyl-1-methyl-1H-pyrazol-5-yl)methyl)-6-(4-(trifluoromethoxy)phenyl)-[1,2,4]triazolo[4,3-a]pyridin-3(2H)-one]	19.3
O=c1n(Cc2ncon2)nc2ccc(-c3ccc(OC(F)(F)F)cc3)cn12 [compound 27, 2-((1,2,4-oxadiazol-3-yl)methyl)-6-(4-(trifluoromethoxy)phenyl)-[1,2,4]triazolo[4,3-a]pyridin-3(2H)-one]	11.2
O=c1n(CCOc2ccccc2)nc2ccc(-c3ccc(OC(F)(F)F)cc3)cn12 [compound 28, 2-(2-phenoxyethyl)-6-(4-(trifluoromethoxy)phenyl)-[1,2,4]triazolo[4,3-a]pyridin-3(2H)-one]	46.3
O=c1n(Cc2nc(Cc3ccccc3)no2)nc2ccc(-c3ccc(OC(F)(F)F)cc3)cn12 [compound 29, 2-((3-benzyl-1,2,4-oxadiazol-5-yl)methyl)-6-(4-(trifluoromethoxy)phenyl)-[1,2,4]triazolo[4,3-a]pyridin-3(2H)-one]	27.2
COc1c(-c2ccc(OC(F)(F)F)cc2)ccc2nn(Cc3nc(C)no3)c(=O)n12 [compound 30, 5-methoxy-2-((3-methyl-1,2,4-oxadiazol-5-yl)methyl)-6-(4-(trifluoromethoxy)phenyl)-[1,2,4]triazolo[4,3-a]pyridin-3(2H)-one]	18.2
Cc1nc(Cn2nc3ccc(-c4cccc(Oc5ccccc5)c4)cn3c2=O)no1 [compound 31, 2-((5-methyl-1,2,4-oxadiazol-3-yl)methyl)-6-(3-phenoxyphenyl)-[1,2,4]triazolo[4,3-a]pyridin-3(2H)-one]	24.4
Cc1nc(Cn2nc3ccc(-c4ccc(Oc5ccc(Cl)cc5)cc4)cn3c2=O)no1 [compound 32, 6-(4-(4-chlorophenoxy)phenyl)-2-((5-methyl-1,2,4-oxadiazol-3-yl)methyl)-[1,2,4]triazolo[4,3-a]pyridin-3(2H)-one]	68.5
O=c1n(Cc2nc(-c3ccccc3Cl)no2)nc2ccc(-c3ccc(OC(F)(F)F)cc3)cn12 [compound 33, 2-((3-(2-chlorophenyl)-1,2,4-oxadiazol-5-yl)methyl)-6-(4-(trifluoromethoxy)phenyl)-[1,2,4]triazolo[4,3-a]pyridin-3(2H)-one]	20.5
O=c1n(-c2ccccn2)nc2ccc(-c3ccc(OC(F)(F)F)cc3)cn12 [compound 34, 2-(pyridin-2-yl)-6-(4-(trifluoromethoxy)phenyl)-[1,2,4]triazolo[4,3-a]pyridin-3(2H)-one]	26
O=c1n(CCn2cccn2)nc2ccc(-c3ccc(OC(F)(F)F)cc3)cn12 [compound 35, 2-(2-(1H-pyrazol-1-yl)ethyl)-6-(4-(trifluoromethoxy)phenyl)-[1,2,4]triazolo[4,3-a]pyridin-3(2H)-one]	12.2
O=c1n(CCc2ccccn2)nc2ccc(-c3ccc(OC(F)(F)F)cc3)cn12 [compound 36, 2-(2-(pyridin-2-yl)ethyl)-6-(4-(trifluoromethoxy)phenyl)-[1,2,4]triazolo[4,3-a]pyridin-3(2H)-one]	48.4
COc1ccccc1OCCCn1nc2ccc(-c3ccc(OC(F)(F)F)cc3)cn2c1=O [compound 37, 2-(3-(2-methoxyphenoxy)propyl)-6-(4-(trifluoromethoxy)phenyl)-[1,2,4]triazolo[4,3-a]pyridin-3(2H)-one]	34.5
O=c1n(CC(O)COc2ccc(Cl)cc2)nc2ccc(-c3ccc(OC(F)(F)F)cc3)cn12 (stereo not shown) [compound 38, 2-(3-(4-chlorophenoxy)-2-hydroxypropyl)-6-(4-(trifluoromethoxy)phenyl)-[1,2,4]triazolo[4,3-a]pyridin-3(2H)-one]	10.8
O=c1n(CCN2CCC(Oc3ccccc3)C2)nc2ccc(-c3ccc(OC(F)(F)F)cc3)cn12 (stereo not shown) [compound 39, 2-(2-(3-phenoxypyrrolidin-1-yl)ethyl)-6-(4-(trifluoromethoxy)phenyl)-[1,2,4]triazolo[4,3-a]pyridin-3(2H)-one]	45.4
O=c1n(CCOc2ccc(Cl)cc2)nc2ccc(-c3ccc(OC(F)(F)F)cc3)cn12 [compound 40, 2-(2-(4-chlorophenoxy)ethyl)-6-(4-(trifluoromethoxy)phenyl)-[1,2,4]triazolo[4,3-a]pyridin-3(2H)-one]	34.3
O=c1n(CCn2cc(Cl)cn2)nc2ccc(-c3ccc(OC(F)(F)F)cc3)cn12 [compound 41, 2-(2-(4-chloro-1H-pyrazol-1-yl)ethyl)-6-(4-(trifluoromethoxy)phenyl)-[1,2,4]triazolo[4,3-a]pyridin-3(2H)-one]	12.2
Cc1ccn(CCn2nc3ccc(-c4ccc(OC(F)(F)F)cc4)cn3c2=O)n1 [compound 42, 2-(2-(3-methyl-1H-pyrazol-1-yl)ethyl)-6-(4-(trifluoromethoxy)phenyl)-[1,2,4]triazolo[4,3-a]pyridin-3(2H)-one]	18.9
O=c1n(CC(O)COc2ccccc2)nc2ccc(-c3ccc(OC(F)(F)F)cc3)cn12 (stereo not shown) [compound 43, 2-(2-hydroxy-3-phenoxypropyl)-6-(4-(trifluoromethoxy)phenyl)-[1,2,4]triazolo[4,3-a]pyridin-3(2H)-one]	19.3
Cc1cccc(C)c1OCCn1nc2ccc(-c3ccc(OC(F)(F)F)cc3)cn2c1=O [compound 44, 2-(2-(2,6-dimethylphenoxy)ethyl)-6-(4-(trifluoromethoxy)phenyl)-[1,2,4]triazolo[4,3-a]pyridin-3(2H)-one]	43.1
O=c1n(CCn2cnc(-c3ccccc3)c2)nc2ccc(-c3ccc(OC(F)(F)F)cc3)cn12 [compound 45, 2-(2-(4-phenyl-1H-imidazol-1-yl)ethyl)-6-(4-(trifluoromethoxy)phenyl)-[1,2,4]triazolo[4,3-a]pyridin-3(2H)-one]	11.8
O=c1n(CCOc2ccccc2Cl)nc2ccc(-c3ccc(OC(F)(F)F)cc3)cn12 [compound 46, 2-(2-(2-chlorophenoxy)ethyl)-6-(4-(trifluoromethoxy)phenyl)-[1,2,4]triazolo[4,3-a]pyridin-3(2H)-one]	43.2
O=c1n(CCOc2ncccc2C(F)(F)F)nc2ccc(-c3ccc(OC(F)(F)F)cc3)cn12 [compound 47, 6-(4-(trifluoromethoxy)phenyl)-2-(2-(3-(trifluoromethyl)pyridin-2-yloxy)ethyl)-[1,2,4]triazolo[4,3-a]pyridin-3(2H)-one]	43.6
Cc1cccc(CCn2nc3ccc(-c4ccc(OC(F)(F)F)cc4)cn3c2=O)n1 [compound 48, 2-(2-(6-methylpyridin-2-yl)ethyl)-6-(4-(trifluoromethoxy)phenyl)-[1,2,4]triazolo[4,3-a]pyridin-3(2H)-one]	34.9
O=c1n(CCOc2ccccn2)nc2ccc(-c3ccc(OC(F)(F)F)cc3)cn12 [compound 49, 2-(2-(pyridin-2-yloxy)ethyl)-6-(4-(trifluoromethoxy)phenyl)-[1,2,4]triazolo[4,3-a]pyridin-3(2H)-one]	29.9
